Here are results for ten compounds from patent US20230372302A1 (priority 2019, published 2023).

Entries after “also recorded” stand apart in the source; their conditions may differ. Where a name gives a salt, the structure may show the parent alone.

The target of data set [1] is T1, recombinant human alpha 1D adrenergic receptor (ADR1D) (Homo sapiens, UniProt P25100).
T1 sequence (P25100 1-572): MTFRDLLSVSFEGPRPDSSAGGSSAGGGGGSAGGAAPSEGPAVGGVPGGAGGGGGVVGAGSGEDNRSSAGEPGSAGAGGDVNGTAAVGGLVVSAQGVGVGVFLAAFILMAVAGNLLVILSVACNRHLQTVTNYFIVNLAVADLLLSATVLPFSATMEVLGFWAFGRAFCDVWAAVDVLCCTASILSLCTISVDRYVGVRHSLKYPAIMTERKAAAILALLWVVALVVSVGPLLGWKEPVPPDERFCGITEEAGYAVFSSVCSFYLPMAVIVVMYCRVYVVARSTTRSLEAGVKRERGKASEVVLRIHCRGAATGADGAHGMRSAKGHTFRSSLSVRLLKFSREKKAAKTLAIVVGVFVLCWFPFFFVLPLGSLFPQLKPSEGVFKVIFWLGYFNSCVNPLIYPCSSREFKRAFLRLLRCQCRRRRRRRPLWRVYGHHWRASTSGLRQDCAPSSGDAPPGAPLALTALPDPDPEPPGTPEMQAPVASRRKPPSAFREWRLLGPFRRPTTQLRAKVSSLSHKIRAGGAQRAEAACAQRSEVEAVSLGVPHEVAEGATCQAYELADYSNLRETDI

Another data set relates to neuromuscular blockade. Particulars: human, in vivo; cited from earlier work.
Data set [2] deals with vocal cords and respiratory muscles of rats. To be noted: rat, in vivo.
The subject of a further data set is rat. Particulars: in vivo; cited from earlier work.
Data set [3] addresses T2, recombinant human VMAT2 transporters (Homo sapiens, UniProt Q05940).
T2 construct: expressed in transfected cells; host or cells: HEK-293
It is filed as binding.

For data set [4], the target named is vesicular monoamine transporter-VMAT (Homo sapiens, UniProt Q05940). The data set can be described thus: cell-based.
Data set [5] deals with recombinant human alpha 1A adrenergic receptor (ADR1A) (Homo sapiens, UniProt P35348). Format: binding.
Data set [6] has as its system T3, alpha 1 adrenergic receptor subtypes (1A, 1B, 1D).
T3 construct: rows headed: BA at all subtypes; other: subnanomolar range; Ki at alpha 1 adrenergic receptor subtypes; other: result in words
Format: binding, human.

Data set [7] has as its system alpha 1 subtypes (1A, 1B, 1D). It is filed as cell-based, human.
Data set [8] deals with T4, recombinant human alpha 1B adrenergic receptor (ADR1B) (Homo sapiens, UniProt P35368).
Data set [9] deals with VC and laryngeal muscles/laryngospasm. Particulars: rat, in vivo; cited from earlier work.
For data set [10] the following is noted: human, in vivo; cited from earlier work.
The target of data set [11] is T5, α-1 adrenergic receptor 1A subtype (Homo sapiens, UniProt P35348).
T5 sequence (P35348 1-466): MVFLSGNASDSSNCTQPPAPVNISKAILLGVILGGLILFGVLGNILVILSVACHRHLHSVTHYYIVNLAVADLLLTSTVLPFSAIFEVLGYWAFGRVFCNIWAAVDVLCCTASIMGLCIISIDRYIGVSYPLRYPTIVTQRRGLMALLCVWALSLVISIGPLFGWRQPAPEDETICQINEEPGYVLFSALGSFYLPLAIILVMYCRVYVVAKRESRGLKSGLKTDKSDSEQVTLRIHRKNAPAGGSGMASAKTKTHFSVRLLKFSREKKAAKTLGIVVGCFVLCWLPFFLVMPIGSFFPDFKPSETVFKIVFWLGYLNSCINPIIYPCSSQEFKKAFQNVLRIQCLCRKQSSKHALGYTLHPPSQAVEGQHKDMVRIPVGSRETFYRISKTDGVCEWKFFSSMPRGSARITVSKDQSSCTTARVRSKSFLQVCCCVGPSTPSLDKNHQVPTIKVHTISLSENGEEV
Particulars: cited from earlier work.

In data set [12] the target is T4, recombinant human alpha 1B adrenergic receptor (ADR1B). The data set can be described thus: biochemical.
For data set [13], the target named is T1, recombinant human alpha 1D adrenergic receptor (ADR1D). Briefly: biochemical.

T4 sequence (P35368 whole entry): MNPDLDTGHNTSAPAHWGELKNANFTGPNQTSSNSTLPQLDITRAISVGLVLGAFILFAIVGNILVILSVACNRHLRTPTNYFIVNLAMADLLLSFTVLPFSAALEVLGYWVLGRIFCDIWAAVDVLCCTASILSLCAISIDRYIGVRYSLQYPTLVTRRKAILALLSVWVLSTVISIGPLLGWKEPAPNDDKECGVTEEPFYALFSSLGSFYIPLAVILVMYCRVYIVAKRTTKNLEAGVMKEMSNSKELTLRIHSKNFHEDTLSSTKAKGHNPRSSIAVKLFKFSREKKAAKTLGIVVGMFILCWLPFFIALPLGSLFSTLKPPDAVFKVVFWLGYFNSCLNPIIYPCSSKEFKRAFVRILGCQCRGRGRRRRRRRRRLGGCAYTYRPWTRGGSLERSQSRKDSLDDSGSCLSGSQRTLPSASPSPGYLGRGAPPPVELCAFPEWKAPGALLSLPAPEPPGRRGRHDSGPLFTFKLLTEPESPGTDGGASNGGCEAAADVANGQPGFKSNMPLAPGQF
T2 sequence (Q05940 whole entry): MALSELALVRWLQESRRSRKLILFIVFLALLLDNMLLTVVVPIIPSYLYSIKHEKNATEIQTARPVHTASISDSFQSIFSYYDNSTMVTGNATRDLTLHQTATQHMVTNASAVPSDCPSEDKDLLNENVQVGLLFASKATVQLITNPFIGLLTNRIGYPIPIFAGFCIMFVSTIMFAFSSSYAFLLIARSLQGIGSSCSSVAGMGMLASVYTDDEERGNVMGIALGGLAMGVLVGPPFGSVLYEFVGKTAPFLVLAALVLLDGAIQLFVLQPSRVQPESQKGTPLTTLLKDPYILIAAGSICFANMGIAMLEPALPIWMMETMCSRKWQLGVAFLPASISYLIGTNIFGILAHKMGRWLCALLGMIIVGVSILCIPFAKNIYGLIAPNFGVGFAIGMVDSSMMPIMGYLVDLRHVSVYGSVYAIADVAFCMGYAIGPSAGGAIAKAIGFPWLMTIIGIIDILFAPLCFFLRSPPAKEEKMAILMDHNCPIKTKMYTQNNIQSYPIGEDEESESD
vesicular monoamine transporter-VMAT, sequence (Q05940 whole entry): as above

Consider `NC[C@H](O)c1ccc(O)c(O)c1` [norepinephrine], for which the “binding at the 1D subtype over 1A and 1B receptor subtypes, respectively” value in data set [1] is on record as 9-20 fold.
On to `C=CC[N+]1([C@H]2C[C@H]3[C@@H]4CC[C@H]5C[C@H](O)[C@@H](N6CCOCC6)C[C@]5(C)[C@H]4CC[C@]3(C)[C@H]2OC(C)=O)CCCC1` [rocuronium bromide, 1-[17β-(acetyloxy)-3α-hydroxy-2β-(4-morpholinyl)-5α-androstan-16β-yl]-1-(2-propenyl)pyrrolidinium bromide], for which, in the data set on neuromuscular blockade, the “time to completed intubation in most patients” value is no more than 2 min; the “time to excellent or good intubating conditions in most patients” value is listed as “less than 2 minutes”; the “time to maximum blockade in most patients” value is “less than 3 minutes”; the “time to neuromuscular block sufficient for intubation (80% block or greater), median (range)” value was 1 (0.4-6) minute(s).
As to `COC(=O)[C@H]1[C@@H](OC(=O)c2ccccc2)C[C@@H]2CC[C@H]1N2C` [cocaine], the “vocal cord closure and chest wall rigidity effect (specific to F/FA)” value in [2] was “not demonstrated”. Also, the LD85 with rat is reported as 70 mg/kg.
In the case of `CC(=O)Oc1ccc2c3c1O[C@H]1[C@@H](OC(C)=O)C=C[C@H]4[C@@H](C2)N(C)CC[C@@]341` [heroin], the “vocal cord closure and chest wall rigidity effect (specific to F/FA)” value in [2] is on record as “not demonstrated”.
As for `C[N+](C)(C)CCOC(=O)CCC(=O)OCC[N+](C)(C)C` [succinylcholine], in the data set with neuromuscular blockade, the “onset of effect given intramuscularly” value was 2 to 3 min, the “persistence of maximum blockade” value is recorded as “about 2 minutes”, the “recovery time after maximum blockade” value was 4 to 6 min and the “time until neuromuscular blockade develops” value was “about 1 minute”.
On to `CN[C@@H](C)Cc1ccccc1` [methamphetamine], for which the “binding to VMAT2 transporter” value in [3] is given as “bind to recombinant human VMAT2 transporters”. In addition, the IC50 (as a rule, the concentration at which inhibition is half-maximal) in data set [4] was roughly 4000 nM. Moreover, in data set [2], the “vocal cord closure and chest wall rigidity effect (specific to F/FA)” value is listed as “not demonstrated”. Also, in the data set with rat, the LD90 was 100 mg/kg.
Turning to `CN1CC[C@]23c4c5ccc(O)c4O[C@H]2[C@@H](O)C=C[C@H]3[C@H]1C5` [morphine], in data set [5], the “binding at alpha 1A (bind all alpha 1 subtypes)” value is reported as “not morphine or naloxone bind”. Further, the “binding at alpha 1 adrenergic receptor subtypes” value in [6] is reported as “not morphine; also recorded: neither morphine (MSO4) or naloxone had any notable or relevant binding activity”. Further, in data set [7], the “act as antagonists at all alpha 1 subtypes” value is “not morphine”. In data set [8], the “binding at alpha 1B (bind all alpha 1 subtypes)” value is on record as “not morphine or naloxone bind”. In addition, the “binding at alpha 1D (bind all alpha 1 subtypes)” value in [1] is “not morphine or naloxone bind”.
Consider `C=CCN1CC[C@]23c4c5ccc(O)c4O[C@H]2C(=O)CC[C@@]3(O)[C@H]1C5.Cl` [naloxone, 17-Allyl-4,5α-epoxy-3,14-dihydroxymorphinan-6-one hydrochloride], for which the “binding at alpha 1 adrenergic receptor subtypes” value in [6] is “neither morphine (MSO4) or naloxone had any notable or relevant binding activity”. Also, the “impact on the effects of F on VC and laryngeal muscles/laryngospasm” value in [9] is “minimal impact”.
Consider `C[C@H](Cc1cc2c(c(C(N)=O)c1)N(CCCO)CC2)NCCOc1ccccc1OCC(F)(F)F` [SILODOSIN, (3-Hydroxypropyl)-5-[(2R)-2-({2-[2-(2,2,2trifluoroethoxy)phenoxy]ethyl}amino)propyl]-2,3-d hydro-1H-indole-7-carboxamide], for which, in data set [10], the “dizziness and orthostatic hypotension” value was 3%; the subjects with syncope is reported as 1/897.
As to `CCOc1ccccc1OCCN[C@H](C)Cc1ccc(OC)c(S(N)(=O)=O)c1` [tamsulosin, (−)-(R)-5-[2-[[2-(o-Ethoxyphenoxy)ethyl]amino]propyl]-2-methoxybenzenesulfon-amide, monohydrochloride], the “binding affinity at the 1A subtype greater over other α-1 antagonists” value in [11] was 12-30 times. Further, the Ki in data set [12] and in [13] was less than 1 nM each time.
